These results are taken from ChEMBL document CHEMBL1201862, “PubChem BioAssay data set” (2004).

Some test systems named below: 786-0; A549; CAKI-1; COLO 205; DU-145; EKVX; HCT-116; HCT-15; HL-60; HT-29; IGROV-1; MDA-MB-231; OVCAR-4; RXF 393; SF-295; SF-539; SK-MEL-28; SK-MEL-2; SK-OV-3; SN12C.
Common to all, as to test: NCI tumour cell line growth inhibition, 48 h

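Briefly, cells in 96-well plates were exposed to five compound concentrations for 48 h, and endpoints were estimated by linear interpolation. GI50 is the concentration that inhibits growth by half.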 Active and inactive are the calls of the source. Cut-off read from the data, not from the text of the source: active = GI50 up to about 1.1 µM and inactive = higher.

For `Sc1nnc(COc2ccc(Cl)cc2)n1-c1ccccc1`, the GI50 with 786-0 is > 100 µM (inactive); with A549, > 100 µM (inactive); in the assay on CAKI-1, 17.5 µM (inactive); with COLO 205 it was 88.1 µM (inactive); in the assay on DU-145 it was > 100 µM (inactive); in the assay with EKVX it was > 100 µM (inactive). In addition, the GI50 in the assay with HCT-116 is 46.1 µM (inactive); in the assay on HCT-15, more than 100 µM; with HL-60 it was > 100 µM (inactive); in the assay on HT-29, > 100 µM (inactive); in the assay with IGROV-1, > 100 µM (inactive); in the assay with MDA-MB-231 it was > 100 µM (inactive). Moreover, the GI50 in the assay with OVCAR-4, in the assay with RXF 393, with SF-295, with SF-539, in the assay on SK-MEL-28 and in the assay with SK-MEL-2 was > 100 µM (inactive) each time. Also, the GI50 with SK-OV-3 and with SN12C was > 100 µM (inactive) each time.
For `CN(O)C(=S)c1ccccc1`, the GI50 in the assay on 786-0 was 1.38 µM (inactive); in the assay with A549 it was 4.26 µM (inactive); in the assay with CAKI-1, 4.25 µM (inactive); in the assay on COLO 205, 0.379 µM (active); in the assay with DU-145, 41.2 µM (inactive); with EKVX it was 15.5 µM (inactive). Further, the GI50 was 1.49 µM (inactive) with HCT-116; 2.47 µM in the assay with HCT-15; 0.233 µM (active) in the assay on HL-60; 0.312 µM (active) with HT-29; 3.52 µM (inactive) with IGROV-1; 9.33 µM (inactive) in the assay with MDA-MB-231. Besides, the GI50 was 1.88 µM (inactive) in the assay on OVCAR-4; 3.19 µM (inactive) in the assay with RXF 393; 3.48 µM (inactive) with SF-295; 9.59 µM (inactive) in the assay on SF-539; 3.31 µM (inactive) in the assay on SK-MEL-28; 5.07 µM (inactive) with SK-MEL-2. For the same compound, the results for the GI50 with SK-OV-3 and with SN12C were 11.3 µM (inactive) and 5.18 µM (inactive), respectively.
For the compound `COc1cc2c(cc1OC)-c1cc3ccccc3c(=O)n1CCC2`, the GI50 in the assay with 786-0 is 6.97 µM (inactive); with A549 it was 8.28 µM (inactive); in the assay on CAKI-1, 7.85 µM (inactive); in the assay with COLO 205, 8.47 µM (inactive); in the assay on DU-145, 10.7 µM (inactive); in the assay on EKVX it was 21.9 µM (inactive). For the same compound, the GI50 is 3.94 µM (inactive) in the assay with HCT-116; 2.07 µM in the assay on HCT-15; 2.58 µM (inactive) with HL-60; 4.17 µM (inactive) in the assay with HT-29; 7.48 µM (inactive) in the assay on IGROV-1; 5.47 µM (inactive) with MDA-MB-231. Also, the GI50 in the assay with OVCAR-4 is 24.6 µM (inactive); with RXF 393, 5.02 µM (inactive); in the assay with SF-295, 11.1 µM (inactive); in the assay with SF-539, 2.94 µM (inactive); in the assay with SK-MEL-28, 17.9 µM (inactive); in the assay with SK-MEL-2 it was 29.3 µM (inactive). The GI50 in the assay with SK-OV-3 was 7.31 µM (inactive); in the assay with SN12C, 13.1 µM (inactive).
As to `O=S1(=O)c2ccccc2NC(=S)N1c1ccccc1`, the GI50 with 786-0 was > 87.3 µM (inactive); in the assay on A549 it was 6.17 µM (inactive); with CAKI-1, > 72.8 µM (inactive); in the assay with COLO 205, 77.8 µM (inactive); in the assay with DU-145 it was 87.1 µM (inactive); in the assay with EKVX, 32.4 µM (inactive). The GI50 is 45.3 µM (inactive) in the assay with HCT-116; 75 µM in the assay on HCT-15; 32 µM (inactive) in the assay with HL-60; > 13.4 µM (inactive) in the assay on HT-29; 2.45 µM (inactive) in the assay on IGROV-1; > 57.8 µM (inactive) in the assay on MDA-MB-231. In addition, the GI50 in the assay with OVCAR-4 is 53.3 µM (inactive); in the assay on RXF 393, > 54.2 µM (inactive); in the assay with SF-295, 3.49 µM (inactive); in the assay with SF-539 it was > 100 µM (inactive); in the assay with SK-MEL-28, > 89.9 µM (inactive); in the assay with SK-MEL-2, 73.5 µM (inactive). The figures for the GI50 in the assay on SK-OV-3 and in the assay on SN12C were > 100 µM (inactive) and 62.2 µM (inactive), respectively.
As for `C=C1CCCC(C)(C)C1CCC1(C)CCC(C(C)C(=O)OC)OO1` (stereo not given), the GI50 in the assay on 786-0 is 0.36 µM (active); in the assay on A549, 1.28 µM (inactive); in the assay on CAKI-1, 0.383 µM (active); in the assay on COLO 205, 4.92 µM (inactive); in the assay on DU-145, 4.35 µM (inactive); with EKVX, 7.91 µM (inactive). Also, the GI50 is 8.45 µM (inactive) with HCT-116; 15.5 µM in the assay on HCT-15; 2.21 µM (inactive) in the assay with HL-60; 2.04 µM (inactive) with HT-29; 0.63 µM (active) with IGROV-1; 9.08 µM (inactive) in the assay on MDA-MB-231. In addition, the GI50 in the assay on OVCAR-4 is 4.9 µM (inactive); with RXF 393 it was 4.04 µM (inactive); in the assay with SF-295 it was 4.48 µM (inactive); in the assay on SF-539 it was 6.3 µM (inactive); in the assay on SK-MEL-28 it was 20.6 µM (inactive); in the assay with SK-MEL-2, 10.8 µM (inactive). Moreover, the GI50 is 4.4 µM (inactive) in the assay with SK-OV-3 and 3.77 µM (inactive) in the assay on SN12C.
In the case of `Cc1cc(C2(c3cc(C)c(O)c4ncccc34)OC(=O)c3ccccc32)c2cccnc2c1O`, the GI50 in the assay on 786-0 was 0.0178 µM (active); in the assay with A549, < 0.001 µM (active); in the assay with CAKI-1, 0.00953 µM (active); in the assay on COLO 205 it was 0.67 µM (active); in the assay on DU-145, 0.0659 µM (active); with EKVX, 0.0203 µM (active). For the same compound, the GI50 in the assay on HCT-116 is 0.00268 µM (active); in the assay with HCT-15, less than 0.001 µM; in the assay on HL-60, 0.0247 µM (active); with HT-29 it was 0.0406 µM (active); in the assay on IGROV-1, 0.0378 µM (active); in the assay with MDA-MB-231, 0.0692 µM (active). Moreover, the GI50 in the assay with OVCAR-4 was 0.067 µM (active); with RXF 393 it was 0.741 µM (active); in the assay with SF-295, 0.0299 µM (active); in the assay on SF-539, 0.0376 µM (active); in the assay with SK-MEL-28 it was > 10 µM (inactive); with SK-MEL-2, 0.262 µM (active). Further, the GI50 in the assay on SK-OV-3 was 4.52 µM (inactive); in the assay with SN12C, 0.0353 µM (active).
Regarding `C=C1c2c(n(S(=O)(=O)c3ccccc3)c3ccccc23)[C@@]2(C(=O)OC)CC3C=CC2N1C3`, the GI50 with 786-0, in the assay with A549, with CAKI-1, with COLO 205, in the assay with DU-145 and with EKVX was > 100 µM (inactive) throughout. Also, the GI50 with HCT-116 was > 100 µM (inactive); with HCT-15 it was more than 100 µM; with HL-60, 8.09 µM (inactive); in the assay on HT-29, > 100 µM (inactive); in the assay with IGROV-1, > 100 µM (inactive); in the assay with MDA-MB-231 it was > 100 µM (inactive). The GI50 in the assay with OVCAR-4, with RXF 393, with SF-295, with SF-539, in the assay with SK-MEL-28 and in the assay on SK-MEL-2 was > 100 µM (inactive) each time. Further, the GI50 in the assay with SK-OV-3 and with SN12C was > 100 µM (inactive) each time.
Regarding `O=c1c2ccccc2[se]n1-c1cccnc1`, the GI50 in the assay with 786-0 was 31.4 µM (inactive); in the assay with A549 it was 40.6 µM (inactive); with CAKI-1, 42.3 µM (inactive); with COLO 205, 20 µM (inactive); in the assay on DU-145 it was 18.2 µM (inactive); with EKVX, 33.4 µM (inactive). Moreover, the GI50 with HCT-116 was 30.5 µM (inactive); with HCT-15 it was 23.6 µM; in the assay on HL-60 it was 30.1 µM (inactive); in the assay with HT-29 it was 43.8 µM (inactive); with IGROV-1, 19.8 µM (inactive); in the assay with MDA-MB-231, 25.1 µM (inactive). Also, the GI50 with OVCAR-4 is 36.2 µM (inactive); in the assay on RXF 393 it was 29.2 µM (inactive); with SF-295, 31.9 µM (inactive); in the assay on SF-539 it was 21.9 µM (inactive); in the assay with SK-MEL-28 it was 24.7 µM (inactive); with SK-MEL-2 it was 19.3 µM (inactive). The GI50 in the assay on SK-OV-3 is > 100 µM (inactive); in the assay with SN12C it was 29.6 µM (inactive).
For the compound `CCCC(=O)OC[n+]1ccc(-c2c(COC(=O)NC(C)C)c(COC(=O)NC(C)C)c3n2CCC3)cc1`, the GI50 in the assay on 786-0 is 51.9 µM (inactive); in the assay on A549, > 100 µM (inactive); with CAKI-1, 21.8 µM (inactive); in the assay with COLO 205 it was > 100 µM (inactive); in the assay with DU-145, 31.2 µM (inactive); with EKVX, > 100 µM (inactive). For the same compound, the GI50 in the assay on HCT-116 was > 100 µM (inactive); in the assay with HCT-15, more than 100 µM; with HL-60 it was 33.3 µM (inactive); with HT-29, > 100 µM (inactive); in the assay with IGROV-1, > 100 µM (inactive); in the assay on MDA-MB-231 it was > 100 µM (inactive). Besides, the GI50 in the assay with OVCAR-4 is > 100 µM (inactive); in the assay on RXF 393, 34.5 µM (inactive); in the assay on SF-295 it was 81.7 µM (inactive); in the assay on SF-539 it was 28.1 µM (inactive); with SK-MEL-28 it was > 100 µM (inactive); in the assay on SK-MEL-2, > 100 µM (inactive). The GI50 in the assay on SK-OV-3 and with SN12C was > 100 µM (inactive) throughout.
Turning to `O=C1Nc2ccc(Br)cc2/C1=C/C(=O)c1ccccc1`, the GI50 with 786-0 was 1.67 µM (inactive); in the assay on A549, 16.1 µM (inactive); in the assay on CAKI-1 it was 7.74 µM (inactive); with COLO 205 it was 2.11 µM (inactive); in the assay on DU-145, 10.2 µM (inactive); in the assay on EKVX it was 14.5 µM (inactive). In addition, the GI50 with HCT-116 is 4.22 µM (inactive); in the assay with HCT-15, 2.49 µM; in the assay on HL-60, 2.83 µM (inactive); with HT-29 it was 1.59 µM (inactive); in the assay with IGROV-1, 3.67 µM (inactive); with MDA-MB-231, 15.5 µM (inactive). Moreover, the GI50 in the assay with OVCAR-4 was 13.7 µM (inactive); in the assay with RXF 393, 1.95 µM (inactive); in the assay on SF-295 it was 17.8 µM (inactive); with SF-539, 6.08 µM (inactive); in the assay with SK-MEL-28, 14.8 µM (inactive); in the assay with SK-MEL-2 it was 16 µM (inactive). In addition, the GI50 in the assay on SK-OV-3 was 17.6 µM (inactive); in the assay with SN12C, 4.2 µM (inactive).
